According to patent US9840512B2, “Antidiabetic bicyclic compounds” (Merck Sharp & Dohme Corp., priority 2013, dated 2017):

How the values were obtained:
[1] = molecular target: T1, human GPR40 (Homo sapiens, UniProt O14842); experiment: FLIPR assay (agonist-induced calcium mobilization); details: for EC50: Human FLIPR EC50, nM or % activation (EC50 values), GPR40/CHO NFAT BLA cells; for activation at 10 µM: CHONFAT, read-out: Human FLIPR EC50, nM or % activation (% activation values)
Method: Human and mouse GPR40 stable cell-lines were generated in CHO cells stably expressing NFAT BLA (Beta-lactamase). […] The expression plasmids were transfected using lipofectamine (Life Technologies) following manufacturer's instructions. Stable cell-lines were generated following drug selection.
FLIPR (Fluorimetric Imaging Plate Reader, Molecular Devices) assays were performed to measure agonist-induced calcium mobilization of the stable clones. For the FLIPR assay, one day before assay, GPR40/CHO NFAT BLA cells were seeded into black-wall-clear-bottom 384-well plates (Costar) at 1.4×10e4 cells/20 μL medium/well. The cells were incubated with 20 μl/well of the assay buffer (HBSS, 0.1% BSA, 20 mM HEPES, 2.5 mM probenecid, pH 7.4) containing 8 μM fluo-4, AM, 0.08% pluronic acid at room temperature for 100 minutes. Fluorescence output was measured using FLIPR. Compounds were dissolved in DMSO and diluted to desired concentrations with assay buffer.

[2] = molecular target: T1, human GPR40; experiment: Inositol Phosphate Turnover (IP1) Assay 1; details: Human IP1 Assay 1, EC50, nM, HEK cells stably expressing human GPR40
Method: The assay is performed in 96-well format. HEK cells stably expressing human GPR40 are plated to be 60-80% confluent within 72 h. After 72 h, the plates are aspirated and the cells washed with inositol-free DMEM (ICN). The wash media is replaced with 150 μL of 3H-inositol labeling media (inositol-free media containing 0.4% human albumin or 0.4% mouse albumin, 1× pen/strep antibiotics, glutamine, 25 mM HEPES to which is added 3H-myo-inositol NEN #NET114A 1 mCi/mL, 25 Ci/mmol diluted 1:150 in loading media with a final specific radioactivity of 1 μCi/150 μL). Alternatively, the human and mouse albumin can be added after the overnight labeling step before the addition of LiCl.
The assay is typically run the next day after 18 h labeling. On the day of the assay, 5 μL of 300 mM LiCl is added to all wells and incubated at 37 degrees for 20 min. 0.75 μL of 200× compounds are added and incubated with the cells for 60 min at 37 degrees. The media is then aspirated off and the assay terminated with the addition of 60 μL 10 mM formic acid. The cells are lysed for 60 min at room temperature. 15-30 μL of lysate is mixed with 70 μL/1 mg YSi SPA beads (Amersham) in clear bottom Isoplates. The plates are shaken for 2 h at room temperature. Beads are allowed to settle and the plates are counted in the Wallac Microbeta.

[3] = molecular target: T1, human GPR40; experiment: Inositol Phosphate Turnover (IP1) Assay 2; assay type: cell-based; design: expressed in transfected cells
Method in brief: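 HEK cells stably expressing human GPR40 (aequorin reporter background) seeded and grown 16 h at 37 °C, then treated with compound in IP-One stimulation buffer for 60 min at 37 °C. IP1 accumulation detected by HTRF/FRET after 60 min with detection reagents in the dark.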

[4] = HEK cells stably expressing human GPR40, Table 2, read-out: Human IP1
[5] = HEK cells stably expressing human GPR40, Table 3, read-out: Human IP1 activity

T1 sequence (O14842 whole entry): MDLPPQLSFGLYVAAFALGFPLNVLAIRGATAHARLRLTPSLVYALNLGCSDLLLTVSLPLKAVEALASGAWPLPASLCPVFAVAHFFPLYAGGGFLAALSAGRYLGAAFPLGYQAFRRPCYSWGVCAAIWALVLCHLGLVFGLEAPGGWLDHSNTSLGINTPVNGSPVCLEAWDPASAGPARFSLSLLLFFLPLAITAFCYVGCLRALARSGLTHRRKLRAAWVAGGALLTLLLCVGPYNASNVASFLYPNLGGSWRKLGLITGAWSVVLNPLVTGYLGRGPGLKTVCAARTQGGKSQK

| Structure (SMILES) | EC50 [1] [nM] | further results |
| --- | --- | --- |
| CC#CC(CC(=O)O)c1ccc2c(c1)CCC(c1cccc(-c3c(C)noc3C)c1)O2 (mixture of isomers) [Example 22] | 151 | EC50 [2]: 638 nM |
| Cc1ccccc1-c1ccc(C2CCc3cc4c(cc3O2)OC[C@H]4CC(=O)O)c(F)c1 (some centres unmarked) [Example 57] | 1050 |  |
| CC#C[C@@H](CC(=O)O)c1ccc2c(c1)CCC(c1ccc(OCc3ccccc3)cc1)O2 (mixture of isomers) [Example 50] | 9 | EC50 [2]: 877 nM |
| CC#C[C@@H](CC(=O)O)c1ccc2c(c1)CCC(c1cc(-c3ccc(OC)nc3C)ccc1F)O2 (single isomer, unassigned) [Example 37] | 38 | EC50 [2]: 47 nM |
| COc1cccc(C(CC(=O)O)c2ccc3c(c2)CCC(c2cccc(-c4c(C)cccc4C)c2)O3)c1 (centres unmarked) [Example 46] |  | activation at 10 µM [1]: 41% |
| COc1ccc(C(CC(=O)O)c2ccc3c(c2)CCC(c2cccc(-c4c(C)cccc4C)c2)O3)cc1 (centres unmarked) [Example 47] |  | activation at 10 µM [1]: 61% |
| Cc1cccc(C)c1-c1cccc(C2CCc3cc(CCC(=O)O)ccc3O2)c1 (centres unmarked) [Example 1, 3-(2-(2′,6′-dimethyl-[1,1′-biphenyl]-3-yl)chroman-6-yl)propanoic acid] | 102 | EC50 [2]: 1210 nM |
| Cc1cccc(C)c1-c1cccc(C2CC(=O)c3cc(CCC(=O)O)ccc3O2)c1 (racemic) [Example 7, 3-(2-(2′,6′-dimethyl-[1,1′-biphenyl]-3-yl)-4-oxochroman-6-yl)propanoic acid] |  | activation at 10 µM [1]: 70% |
| Cc1ccccc1-c1cccc(C2CCc3cc4c(cc3O2)OC[C@H]4CC(=O)O)c1F (mixture of isomers) [Example 58] | 1040 |  |
| CC#CC(CC(=O)O)c1ccc2c(c1)CCC(c1cccc(-c3cccnc3C)c1)O2 (mixture of isomers) [Example 26] | 244 |  |
| CC#C[C@@H](CC(=O)O)c1ccc2c(c1)CCC(c1cc(-c3cccnc3C(F)(F)F)ccc1F)O2 (single isomer, unassigned) [Example 36] | 178 |  |
| CC#CC(CC(=O)O)c1ccc2c(c1)OC(c1ccc(-c3c(C)cccc3C)cc1)CC2 (single isomer, unassigned) [Example 53] | 2140 |  |
| CC#C[C@@H](CC(=O)O)c1ccc2c(c1)CCC(c1cc(-c3ccc(C(F)(F)F)cc3)ccc1F)O2 (mixture of isomers) [Example 29] | 162 |  |
| O=C(O)CCc1ccc2c(c1)CCC(c1ccccc1)O2 (racemic) [Example 2] |  | activation at 10 µM [1]: 79% |
| COc1ccccc1C(CC(=O)O)c1ccc2c(c1)CCC(c1cccc(-c3c(C)cccc3C)c1)O2 (centres unmarked) [Example 45] |  | activation at 10 µM [1]: 12.5% |
| CC#CC(CC(=O)O)c1ccc2c(c1)OC(c1ccc(-c3c(C)cccc3C)cc1)CC2 (single isomer, unassigned) [Example 54] | 1090 |  |
| COc1ccc(F)c(-c2ccc(C3CCc4ccc([C@@H](CC(=O)O)C5CC5)cc4O3)cc2C(OC)C(C)(C)C)c1 (single isomer, unassigned) [Example 125d] |  | EC50 [3, 4]: 256 nM |
| C[C@H](C(=O)O)[C@H](c1ccc2c(c1)O[C@H](C1CN([C@@H](C)c3cc(C(F)(F)F)ccc3C(F)(F)F)C1)CO2)C1CC1 [Example 190] |  | EC50 [3, 5]: 20.3 nM |
| COc1cc(-c2ccc(C3CCc4ccc([C@@H](CC(=O)O)C5CC5)cc4O3)c(F)c2)ccn1 (mixture of isomers) [Example 96] |  | EC50 [3, 4]: 14 nM |
| Cc1cccc(C)c1-c1cccc(C2CCc3cc(C(CC(=O)O)c4ccccn4)ccc3O2)c1 (mixture of isomers) [Example 34] | 734 |  |
| COc1ccc(F)c(-c2cnc(C3CCc4ccc([C@H](C5CC5)C(C)C(=O)O)cc4O3)nc2)c1 (single isomer, unassigned) [Example 124b] |  | EC50 [3, 4]: 70 nM |
| COc1ccc(F)c(-c2ccc(C3COc4ccc([C@H](C5CC5)[C@H](C)C(=O)O)cc4O3)cc2)c1 (single isomer, unassigned) [Example 174] |  | EC50 [3, 5]: 0.5 nM |

More lines, main results first:

| EC50 [1] [nM] | Structure (SMILES) | further results |
| --- | --- | --- |
| 1310 | Cc1cccc(C)c1-c1cccc(C2CCc3nc(CCC(=O)O)ccc3O2)c1 (centres unmarked) [Example 10, 3-(2-(2′,6′-dimethyl-[1,1′-biphenyl]-3-yl)-3,4-dihydro-2H-pyrano[3,2-b]pyridin-6-yl)propanoic acid] |  |
| 115 | CC#CC(CC(=O)O)c1ccc2c(c1)CCC(c1cc(Br)ccc1F)O2 (mixture of isomers) [Example 28] | EC50 [2]: 536 nM |
| 106 | CC#CC(CC(=O)O)c1ccc2c(c1)CCC(c1nc(-c3ccc(OC)nc3C)ccc1F)O2 (mixture of isomers) [Example 19] | EC50 [2]: 4500 nM |
| 1920 | Cc1cccc(C)c1-c1cccc(C2CCc3cc(-c4cc(=O)[nH][s+]4[O-])ccc3O2)c1 [Example 9, (1R)-5-(2-(2′,6′-dimethyl-[1,1′-biphenyl]-3-yl)chroman-6-yl)isothiazol-3(2H)-one 1-oxide] |  |
| 12 | COc1ccc(F)c(-c2ccc(C3CCc4ccc(CCC(=O)O)cc4O3)cc2C2=CCCC2(C)C)c1 (racemic) [Example 48] | EC50 [2]: 1020 nM |
| 2040 | Cc1cccc(C)c1-c1cccc(C2CCc3cc(C(CC(=O)O)C4CC4)ccc3O2)c1 (mixture of isomers) [Example 43] |  |
| 105 | CC#C[C@@H](CC(=O)O)c1ccc2c(c1)CCC(c1ccc(-c3cc(OC)ccc3F)cc1)O2 (mixture of isomers) [Example 51] | EC50 [2]: 1200 nM |
| 95 | CC#C[C@@H](CC(=O)O)c1ccc2c(c1)CCC(c1cc(-c3cccnc3C(F)(F)F)ccc1F)O2 (mixture of isomers) [Example 31] | EC50 [2]: 60 nM |
| 113 | CC#C[C@@H](CC(=O)O)c1ccc2c(c1)CCC(c1cccc(-c3c(C)noc3C)c1)O2 (single isomer, unassigned) [Example 39] |  |
| 57 | CC#C[C@@H](CC(=O)O)c1ccc2c(c1)CCC(c1cccc(-c3cccc4c3c(C(F)(F)F)nn4C)c1)O2 (mixture of isomers) [Example 32] | EC50 [2]: 149 nM |
| 69 | CC(C)=CC(CC(=O)O)c1ccc2c(c1)CCC(c1cccc(-c3c(C)cccc3C)c1)O2 (mixture of isomers) [Example 44] | EC50 [2]: 6060 nM |
| 349 | Cc1cccc(C)c1-c1cccc(C2CC(F)(F)c3cc(CCC(=O)O)ccc3O2)c1 (racemic) [Example 8, 3-(2-(2′,6′-dimethyl-[1,1′-biphenyl]-3-yl)-4,4-difluorochroman-6-yl)propanoic acid] |  |
| 128 | CC#C[C@@H](CC(=O)O)c1ccc2c(c1)CCC(c1cc(-c3cc(OC)ccc3F)ccc1F)O2 (mixture of isomers) [Example 30] |  |
| 172 | CC#CC(CC(=O)O)c1ccc2c(c1)CCC(c1nc(-c3cccnc3C(F)(F)F)ccc1F)O2 (mixture of isomers) [Example 20] |  |
| 1540 | CC#CC(CC(=O)O)c1ccc2c(c1)CCC(c1ccc(C(F)(F)F)c(Cl)c1)O2 (mixture of isomers) [Example 18] |  |
| 247 | Cc1cccc(C)c1-c1cccc(C2CCc3cc4c(cc3O2)OC[C@H]4CC(=O)O)c1 (stereo partly drawn) [Example 55, 2-((3S)-7-(2′,6′-dimethyl-[1,1′-biphenyl]-3-yl)-3,5,6,7-tetrahydro-2H-furo[3,2-g]chromen-3-yl)acetic acid] |  |
| 255 | CC#C[C@@H](CC(=O)O)c1ccc2c(c1)CCC(c1cccc(-c3c(C)noc3C)c1)O2 (single isomer, unassigned) [Example 40] |  |
